Measurements: patent US4235912A, “Biologically active new 8β-hydrazinomethyl-ergoline derivatives and a process for the preparation thereof” (Richter Gedeon Vegyeszeti Gyar Rt, priority 1978, dated 1980)
Entries after “also recorded” stand apart in the source; their conditions may differ.

How the values were obtained:
[1] = tested on: serotonine-induced oedema; experiment: antiserotonine effect in vivo: inhibition of serotonine-induced plantar oedema; parameters: species or system rat; settings: for ED50: Rattus norvegicus, 50 μg serotonine into plantar region of rats
serotonine receptors = target: T1, serotonine receptors (Rattus norvegicus, UniProt P14842); experiment: antiserotonine effect in vitro on isolated rat uterus sensitized with diethylstibestrol
T1 construct: isolated rat uterus sensitized with diethylstibestrol; from tissue; host or cells: isolated rat uterus, sensitized with diethylstilbestrol (printed 'diethylstibestrol')
T1 sequence (P14842 whole entry): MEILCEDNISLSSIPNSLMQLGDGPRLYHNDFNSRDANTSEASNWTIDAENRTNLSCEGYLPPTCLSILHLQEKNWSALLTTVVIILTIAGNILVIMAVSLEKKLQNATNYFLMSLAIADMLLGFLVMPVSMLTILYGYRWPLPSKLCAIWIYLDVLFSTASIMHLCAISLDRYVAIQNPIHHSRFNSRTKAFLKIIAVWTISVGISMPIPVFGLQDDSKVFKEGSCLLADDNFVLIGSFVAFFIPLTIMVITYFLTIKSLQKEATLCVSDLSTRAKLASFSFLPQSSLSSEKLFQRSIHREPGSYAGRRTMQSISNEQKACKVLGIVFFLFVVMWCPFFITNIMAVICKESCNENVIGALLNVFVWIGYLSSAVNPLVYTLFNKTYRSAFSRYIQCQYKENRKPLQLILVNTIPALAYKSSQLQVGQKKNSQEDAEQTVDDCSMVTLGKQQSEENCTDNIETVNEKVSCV

[2] = tested on: reserpine-induced depression; experiment: antidepressant activity: reserpine-induced depression, maximum increase in body temperature; format: in vivo; settings: mice
Method: The new 8β-hydrazinomethyl-ergoline derivatives show antidepressant effects as tested on mice suffering from reserpine-induced depression. An intraperitoneal dosage of 5 mg/kg of reserpine was applied to induce depression. 18 hours later the body temperature of the animals was measured, 30 mg/kg of the compound under examination were administered intraperitoneally into the animals, and the body temperature of the animals was measured hourly for 5 hours. The maximum increase in temperature (i.e. the maximum body temperature measured after administering the compound minus the initial value) was considered as the measure of the antidepressant activity. In these tests Imipramine was used as a reference substance.

SMILES	ED50 ([1]; po) [mg/kg]	ED50 ([1]; sc) [mg/kg]	inhibition of serotonine-induced oedema, in words ([1]; parenteral and oral administration)	IC50 (serotonine receptors) [nM]	antidepressant activity, in words [2]
CN(C)C(=O)NNC[C@@H]1C[C@@H]2c3cccc4[nH]cc(c34)C[C@H]2N(C)C1 [Example 6, 6-Methyl-8β-([N'-dimethylcarbamoyl-hydrazino]-methyl)-ergoline]	3	0.05	–	–	–
CC(=O)NNC[C@@H]1C=C2c3cccc4[nH]cc(c34)C[C@H]2N(C)C1 [Example 9, 6-Methyl-8β-([N'-acetyl-hydrazino]-methyl)-ergol-9-ene]	0.78	0.055	outstandingly effective	3.22	–
CNC(=S)NNC[C@@H]1C=C2c3cccc4[nH]cc(c34)C[C@H]2N(C)C1 [Example 14, 6-Methyl-8β-([N'-methylthiocarbamoyl-hydrazino]-methyl)-ergol-9-ene]	–	–	–	–	outstandingly effective; also recorded: superior to that of Imipramine
CC[C@@H](CO)NC(=O)[C@@H]1C=C2c3cccc4c3c(cn4C)C[C@H]2N(C)C1 [Methysergide, 1-methyl lysergic acid butanolamide, reference compound]	0.64	0.026	–	–	–
CC(=O)NNC[C@@H]1C[C@@H]2c3cccc4[nH]cc(c34)C[C@H]2N(C)C1 [Example 4, 6-Methyl-8β-([N'-acetyl-hydrazino]-methyl)-ergoline]	3	0.3	–	–	–
CN(C)C(=O)NNC[C@@H]1C=C2c3cccc4[nH]cc(c34)C[C@H]2N(C)C1 [Example 8, 6-Methyl-8β-([N'-dimethylcarbamoyl-hydrazino]-methyl)-ergol-9-ene]	3	0.16	–	2.95	–
CC(=O)NNC[C@@H]1C[C@@H]2c3cccc4c3c(cn4C)C[C@H]2N(C)C1 [Example 7, 1,6-Dimethyl-8β-([N'-acetyl-hydrazino]-methyl)-ergoline]	3 to 10	0.03	–	–	–
